Data: patent US20140186869A1, “METHOD FOR INHIBITING PROTEASE IN BIOLOGICAL SAMPLE CONTAINING PANCREATIC JUICE COMPONENTS” (OLYMPUS CORPORATION, priority 2011, published 2014)
Like-named read-outs stand apart in the source and are kept apart here.

How the values were obtained:
[1] = tested on: protease present in pancreatic juice; assay: Protease activity (fluorescent-labeled casein, same manner as Example 1) in pancreatic juice specimens; type: biochemical; settings: for concentration at which high levels of protease inhibitory effects against protease present in pancreatic juice are obtained: Example 7, pancreatin and two pancreatic juice specimens, various final concentrations, FIGS. 9-11
[2] = tested on: protease present in pancreatic juice; assay: as above; type: biochemical; settings: pancreatin and two pancreatic juice specimens, 1 mM PMSF, 4 mM AEBSF; for protease inhibitory effects against protease present in pancreatic juice: Example 4, 5 mM p-APMSF, 100 μl TLCK, 100 μM TPCK, FIG. 5; for protease inhibitory effect (fluorescence = degraded amount of casein): Example 3, 0.3 μM aprotinin, 50 μM leupeptin, FIG. 4
Procedure: After adding each protease inhibitor cocktail so that the final concentration thereof was equal to manufacturer's recommended concentration (1×) or a concentration equal to 5 times the recommended concentration (5×), protease activity was measured using a simulated artificial pancreatic juice in the form of “pancreatin”, a digestive enzyme produced from porcine pancreas in which pancreatic enzymes are present in an activated state. Protease activity was measured using EnzCheck Protease Assay Kits (Molecular Probes). […] In addition, a sample solution in which fluorescent-labeled casein was added directly to pancreatin (inhibitor (−), DMSO (−)), a sample solution in which DMSO was added to pancreatin so that the added amount of DMSO was the same as in the case of adding each protease inhibitor cocktail at the manufacturer's recommended concentration (1×) (inhibitor (−), DMSO 1×), and a sample solution in which DMSO was added to pancreatin so that the added amount of DMSO was the same as in the case of adding each protease inhibitor cocktail at a concentration equal to five times the manufacturer's recommended concentration (5×) (inhibitor (−), DMSO 5×) were prepared for use as controls, and these sample solutions were measured for protease activity in the same manner as the protease inhibitor cocktails.
There are four types of serine protease inhibitors contained in Protease Inhibitor Mix (GE) consisting of aprotinin, leupeptin, PMSF and AEBSF (concentrations are not disclosed). Therefore, protease activity was measured in the same manner as Example 1 using pancreatin and two types of pancreatic juice specimens for 15 combinations of the four types of inhibitors prepared so that the final concentration was equal to the maximum recommended concentration for each protease inhibitor alone. Furthermore, the maximum recommended concentrations consisted of 0.3 μM for aprotinin (Roche), 50 μM for leupeptin (Roche), 1 mM for PMSF (Roche) and 4 mM for AEBSF (Roche). In addition, protease activity was also measured in the same manner for a sample solution to which protease inhibitor was not added (Control Sample Solution 1), a sample solution containing the recommended concentration of Inhibitor Cocktail 1 (Complete, Roche) (Control Sample Solution 2), a sample solution containing Inhibitor Cocktail 1 at 5 times the recommended concentration (5×) (Control Sample Solution 3), a sample solution containing the recommended concentration of Inhibitor Cocktail 4 (Protease Inhibitor Mix, GE) (Control Sample Solution 4), and a sample solution containing Inhibitor Cocktail 4 at five times the recommended concentration (5×) (Control Sample Solution 5).
More specifically, a sample solution obtained by adding 1 mM PMSF and 4 mM AEBSF, a sample solution obtained by adding 1 mM PMSF, a sample solution obtained by adding 4 mM AEBSF, a sample solution obtained by adding 5 mM p-APMSF, a sample solution obtained by adding […] TLCK and a sample solution obtained by adding 100 μM TPCK were prepared for use as protease inhibitors, and the protease activity of each sample solution was measured in the same manner as Example 1 using pancreatin and two types of pancreatic juice specimens. In addition, the protease activities of a sample solution to which protease inhibitor was not added (inhibitor (−)), a sample solution containing Inhibitor Cocktail 1 at the recommended concentration (Complete, Roche), a sample solution containing Inhibitor Cocktail 1 at 5 times the recommended concentration (5×), a sample solution containing Inhibitor Cocktail 4 at the recommended concentration (Protease Inhibitor Mix, GE), and a sample solution containing Inhibitor Cocktail 4 at five times the recommended concentration (5×) were also measured in the same manner.

[3] = tested on: protease in duodenal juice specimens; assay: Protease activity (fluorescent-labeled casein) in duodenal juice specimens; type: biochemical; settings: Example 9; four duodenal juice specimens; 1 mM PMSF + 4 mM AEBSF plus 0.3 mM Aprotinin or 1 mM TLCK; FIG. 14
Procedure: After adding each protease inhibitor cocktail so that the final concentration thereof was equal to manufacturer's recommended concentration (1×) or a concentration equal to 5 times the recommended concentration (5×), protease activity was measured using a simulated artificial pancreatic juice in the form of “pancreatin”, a digestive enzyme produced from porcine pancreas in which pancreatic enzymes are present in an activated state. Protease activity was measured using EnzCheck Protease Assay Kits (Molecular Probes). More specifically, fluorescent-labeled casein provided with the kits was added to a pancreatin solution to which each protease inhibitor cocktail had been added, and after incubating for 2 hours at 37° C., fluorescence was measured at a fluorescence wavelength of Ex/Em=485/535 nm. […]
More specifically, a sample solution obtained by adding 1 mM PMSF and 4 mM AEBSF, a sample solution obtained by adding 1 mM PMSF, 4 mM AEBSF and 0.3 mM Aprotinin, and a sample solution obtained by adding 1 mM PMSF, 4 mM AEBSF and 1 mM TLCK were prepared as protease inhibitors, and the protease activity of each sample solution was measured in the same manner as Example 1 using four types of duodenal juice specimens. The protease activity of a sample solution to which protease inhibitor was not added (Inhibitor (−)) was also measured in the same manner as a control.

[4] = tested on: pancreatin (simulated artificial pancreatic juice; pancreatic enzymes in an activated state); assay: Protease activity, EnzCheck Protease Assay Kits (fluorescent-labeled casein), in pancreatin solution; type: biochemical, porcine; settings: Example 5; 0.0003 mM to 0.3 mM Aprotinin; FIGS. 6 and 7
Procedure: […] 5 times the recommended concentration (5×), protease activity was measured using a simulated artificial pancreatic juice in the form of “pancreatin”, a digestive enzyme produced from porcine pancreas in which pancreatic enzymes are present in an activated state. Protease activity was measured using EnzCheck Protease Assay Kits (Molecular Probes). More specifically, fluorescent-labeled casein provided with the kits was added to a pancreatin solution to which each protease inhibitor cocktail had been added, and after incubating for 2 hours at 37° C., fluorescence was measured at a fluorescence wavelength of Ex/Em=485/535 nm. […]
Fluorescence plotted on the vertical axis represents the degraded amount of casein, and that value was estimated to be the value of protease activity.

[5] = Example 5, pancreatic juice specimens, 10-50 μm Elastase Inhibitor I, 1-10 mM EDTA, 0.0003-0.3 mM Aprotinin, 0.005-5 mM Leupeptin, 0.01-1 mM TLCK or TPCK, FIGS. 6 and 7

| Compound | concentration at which high levels of protease inhibitory effects against protease present in pancreatic juice are obtained [1] [mM] | protease inhibitory effects against protease present in pancreatic juice [2] | inhibitory effects against protease present in pancreatic juice [1, 5] | further results |
| --- | --- | --- | --- | --- |
| NCCc1ccc(S(=O)(=O)F)cc1 [AEBSF, 4-(2-aminoethyl)-benzenesulfonyl fluoride] | ≥ 4 | high levels of protease inhibitory effects | – | – |
| O=C(O)CN(CCN(CC(=O)O)CC(=O)O)CC(=O)O [EDTA] | – | – | – | inhibitory effects against protease present in pancreatic juice [1]: hardly any inhibitory effects |
| CC(=O)N[C@@H](CC(C)C)C(=O)N[C@@H](CC(C)C)C(=O)N[C@H](C=O)CCCNC(=N)N [Leupeptin] | – | – | hardly any inhibitory effects | protease inhibitory effect (fluorescence = degraded amount of casein) [2]: hardly any effect on protease activity |
| O=S(=O)(F)Cc1ccccc1 [PMSF, phenylmethylsulfonyl fluoride] | ≥ 1 | high levels of protease inhibitory effects | – | – |
| Cc1ccc(S(=O)(=O)N[C@@H](CCCCN)C(=O)CCl)cc1 [TLCK, N-a-tosyl-L-lysine chloromethyl ketone] | – | low levels of protease inhibitory effects | hardly any inhibitory effects | additional inhibitory effects when added to PMSF and AEBSF, compared with PMSF and AEBSF only [3]: additional inhibitory effects were observed |
| Cc1ccc(S(=O)(=O)N[C@@H](Cc2ccccc2)C(=O)CCl)cc1 [TPCK, N-a-tosyl-L-phenylalanine chloromethyl ketone] | – | low levels of protease inhibitory effects | slight protease inhibitory effects | – |
| Aprotinin | – | – | hardly any effects | protease inhibitory effects against pancreatin (simulated pancreatic juice) [4]: weak protease inhibitory effects; protease inhibitory effect (fluorescence = degraded amount of casein) [2]: hardly any effect on protease activity; additional inhibitory effects when added to PMSF and AEBSF, compared with PMSF and AEBSF only [3]: additional inhibitory effects were not observed |
| p-amidinophenylmethane sulfonyl fluoride hydrochloride [p-APMSF] | ≥ 2 | high levels of protease inhibitory effects | – | – |
